In this experiment the test system is NRF2 (NQO1 activity as marker for NRF2 activation), BEAS-2B cells. Put plainly: BEAS-2B NQO1 MTT Assay. It counts as cell-based. As to conditions: EC50 of NQO1 specific activity induction, 48 hours incubation, read-out: EC50. The procedure, abridged: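 As a marker of NRF2 activation, NQO1 specific activity was read from the rate of absorbance change at 570 nm in MTT cocktail over 30 minutes. Lysates came from BEAS-2B cells treated for 48 hours at 37° C, and EC50 was derived by 3-parameter fitting.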

The record followed here is US11078216B2, “Bisaryl amides as NRF2 activators” (GLAXOSMITHKLINE INTELLECTUAL PROPERTY DEVELOPMENT LIMITED, priority 2016, dated 2021).

Where a name gives a salt, the structure may show the parent alone. Read-outs that look alike come from different tables or passages of the source.

A word on the EC50: it is the concentration that produces a half-maximal response. On to `CCn1cc(CO[C@H](c2ccc(C)c(CN3C[C@@H](C)Cc4ccccc4S3(=O)=O)c2)C(C)(C)C(=O)Nc2cccnc2)nn1` [Example 49, (R)-3-((1-Ethyl-1H-1,2,3-triazol-4-yl)methoxy)-2,2-dimethyl-3-(4-methyl-3-(((S)-4-methyl-1,1-dioxido-4,5-dihydrobenzo[f][1,2]thiazepin-2(3H)-yl)methyl)phenyl)-N-(pyridin-3-yl)propanamide, Formic acid salt], for which, where the note is “Homo sapiens”, the EC50 fell in the range of 100 to 1000 nM.
In the case of `CCCn1cc(CO[C@H](c2ccc(C)c(CN3C[C@@H](C)Cc4ncccc4S3(=O)=O)c2)C(C)(C)C(=O)Nc2cccnc2)nn1` [Example 50, (R)-2,2-Dimethyl-3-(4-methyl-3-(((S)-4-methyl-1,1-dioxido-4,5-dihydropyrido[2,3-f][1,2]thiazepin-2(3H)-yl)methyl)phenyl)-3-((1-propyl-1H-1,2,3-triazol-4-yl)methoxy)-N-(pyridin-3-yl)propanamide, Formic acid salt], the concentration giving a half-maximal response (EC50) (Homo sapiens) lay within 100 to 1000 nM.
Take `CCCn1cc(CO[C@H](c2ccc(C)c(CN3C[C@@H](C)Cc4ccccc4S3(=O)=O)c2)C(C)(C)C(=O)Nc2cccnc2)nn1` [Example 51, (R)-2,2-Dimethyl-3-(4-methyl-3-(((S)-4-methyl-1,1-dioxido-4,5-dihydrobenzo[f][1,2]thiazepin-2(3H)-yl(methyl)phenyl)-3-((1-propyl-1H-1,2,3-triazol-4-yl)methoxy)-N-(pyridin-3-yl)propanamide, Formic acid salt]: the EC50 was 100 to 1000 nM.
For `CCCn1cc(CO[C@H](c2ccc(C)c(CN3C[C@@H](C)Cc4ccc(C(F)(F)F)cc4S3(=O)=O)c2)C(C)(C)C(=O)Nc2cccnc2)nn1` [Example 52, (R)-2,2-Dimethyl-3-(4-methyl-3-(((S)-4-methyl-1,1-dioxido-8-(trifluoromethyl)-4,5-dihydrobenzo[f][1,2]thiazepin-2(3H)-yl)methyl)phenyl)-3-((1-propyl-1H-1,2,3-triazol-4-yl)methoxy)-N-(pyridin-3-yl)propanamide], the concentration giving a half-maximal response (EC50) (Homo sapiens) lay in the range of 1 to 10 nM.
On the same count and under the same terms, the value for `CCCn1cc(CO[C@H](c2ccc(C)c(CN3CC(C)(C)Oc4ccccc4S3(=O)=O)c2)C(C)(C)C(=O)Nc2cccnc2)nn1` [Example 53, (R)-3-(3-((4,4-Dimethyl-1,1-dioxido-3,4-dihydro-2H-benzo[b][1,4,5]oxathiazepin-2-yl)methyl)-4-methylphenyl)-2,2-dimethyl-3-((1-propyl-1H-1,2,3-triazol-4-yl)methoxy)-N-(pyridin-3-yl)propanamide] was 100 to 1000 nM.
Turning to `CCCn1cc(CO[C@H](c2ccc(C)c(CN3C[C@@H](C)Cc4ccncc4S3(=O)=O)c2)C(C)(C)C(=O)Nc2cccnc2)nn1` [Example 54], the half-maximal effective concentration (EC50) fell in the range of 10 to 100 nM.
Turning to `CCCn1cc(CO[C@H](c2ccc(C)c(CN3C[C@@H](CC)Oc4ccccc4S3(=O)=O)c2)C(C)(C)C(=O)Nc2cccnc2)nn1` [Example 55, (R)-3-(3-(((R)-4-Ethyl-1,1-dioxido-3,4-dihydro-2H-benzo[b][1,4,5]oxathiazepin-2-yl)methyl)-4-methylphenyl)-2,2-dimethyl-3-((1-propyl-1H-1,2,3-triazol-4-yl)methoxy)-N-(pyridin-3-yl)propanamide], under “Homo sapiens”, the EC50 was in the range of 100 to 1000 nM.
Same read-out and setting: in the case of `CCCn1cc(CO[C@H](c2ccc(C)c(CN3C[C@@H](C)Cc4ccc(F)cc4S3(=O)=O)c2)C(C)(C)C(=O)Nc2cccnc2)nn1` [Example 56, (R)-3-(3-(((S)-8-Fluoro-4-methyl-1,1-dioxido-4,5-dihydrobenzo[f][1,2]thiazepin-2(3H)-yl)methyl)-4-methylphenyl)-2,2-dimethyl-3-((1-propyl-1H-1,2,3-triazol-4-yl)methoxy)-N-(pyridin-3-yl)propanamide] it was 100 to 1000 nM; in that of `CC[C@H]1Cc2ccccc2S(=O)(=O)N(Cc2cc([C@H](OCc3cn(CC)nn3)C(C)(C)C(=O)Nc3cccnc3)ccc2C)C1` [Example 57, (S)-3-(3-(((S)-4-Ethyl-1,1-dioxido-4,5-dihydrobenzo[f][1,2]thiazepin-2(3H)-yl)methyl)-4-methylphenyl)-3-((1-ethyl-1H-1,2,3-triazol-4-yl)methoxy)-2,2-dimethyl-N-(pyridin-3-yl)propanamide], 10 to 100 nM.
Turning to `CCn1cc(CO[C@@H](c2ccc(C)c(CN3C[C@@H](C)Cc4ncccc4S3(=O)=O)c2)C(C)(C)C(=O)Nc2cccnc2)nn1` [Example 58, (S)-3-((1-Ethyl-1H-1,2,3-triazol-4-yl)methoxy)-2,2-dimethyl-3-(4-methyl-3-(((S)-4-methyl-1,1-dioxido-4,5-dihydropyrido[2,3-f][1,2]thiazepin-2(3H)-yl)methyl)phenyl)-N-(pyridin-3-yl)propanamide], the EC50 (Homo sapiens) was 100 to 1000 nM.
On to `CCn1nnc2c(C)c([C@H](c3ccc(C)c(CN4C[C@H](C)Cc5ccccc5S4(=O)=O)c3)C(C)(C)C(=O)Nc3cccnc3)cc(OC)c21` [Example 59, (S)-3-(1-Ethyl-7-methoxy-4-methyl-1H-benzo[d][1,2,3]triazol-5-yl)-2,2-dimethyl-3-(4-methyl-3-(((R)-4-methyl-1,1-dioxido-4,5-dihydrobenzo[f][1,2]thiazepin-2(3H)-yl)methyl)phenyl)-N-(pyridin-3-yl)propanamide], for which, where the note is “Homo sapiens”, the 50% effective concentration (EC50) lay within 100 to 1000 nM.
In the case of `CC[C@@H]1CN(Cc2cc([C@H](c3cc(OC)c4c(nnn4CC)c3C)C(C)(C)C(=O)Nc3cccnc3)ccc2C)S(=O)(=O)c2ccccc2O1` [Example 60, (R)-3-(3-(((R)-4-Ethyl-1,1-dioxido-3,4-dihydro-2H-benzo[b][1,4,5]oxathiazepin-2-yl)methyl)-4-methylphenyl)-3-(1-ethyl-7-methoxy-4-methyl-1H-benzo[d][1,2,3]triazol-5-yl)-2,2-dimethyl-N-(pyridin-3-yl)propanamide], the EC50 (Homo sapiens) fell in the range of 100 to 1000 nM.
As for `COc1cc(C(CC(=O)Nc2cccnc2)c2ccc(C)c(CN3C[C@@H](C)Cc4ccc(C(F)(F)F)cc4S3(=O)=O)c2)cc2nnn(C)c12` (stereo partly drawn) [Example 61], the EC50 is 10 to 100 nM.
Regarding `COc1cc([C@@H](CC(=O)Nc2cccnc2)c2ccc(C)c(CN3C[C@@H](C)Oc4ccccc4S3(=O)=O)c2)cc2nnn(C)c12` [Example 62, (S)-3-(7-Methoxy-1-methyl-1H-benzo[d][1,2,3]triazol-5-yl)-3-(4-methyl-3-(((R)-4-methyl-1,1-dioxido-3,4-dihydro-2H-benzo[b][1,4,5]oxathiazepin-2-yl)methyl)phenyl)-N-(pyridin-3-yl)propanamide], the EC50 (Homo sapiens) lay within 10 to 100 nM.
Still for that read-out and setting: the value for `CCn1nnc2c(C)c([C@H](c3ccc(C)c(CN4C[C@@H](C)Cc5ccc(C(F)(F)F)cc5S4(=O)=O)c3)C(C)(C)C(=O)Nc3cccnc3)cc(OC)c21` [Example 63, (S)-3-(1-Ethyl-7-methoxy-4-methyl-1H-benzo[d][1,2,3]triazol-5-yl)-2,2-dimethyl-3-(4-methyl-3-(((S)-4-methyl-1,1-dioxido-8-(trifluoromethyl)-4,5-dihydrobenzo[f][1,2]thiazepin-2(3H)-yl)methyl)phenyl)-N-(pyridin-3-yl)propanamide] was 1 to 10 nM; that for `CC[C@@H]1CN(Cc2cc([C@@H](c3cc(OC)c4c(nnn4CC)c3C)C(C)(C)C(=O)Nc3cccnc3)ccc2C)S(=O)(=O)c2ccccc2O1` [Example 64, (S)-3-(3-(((R)-4-Ethyl-1,1-dioxido-3,4-dihydro-2H-benzo[b][1,4,5]oxathiazepin-2-yl)methyl)-4-methylphenyl)-3-(1-ethyl-7-methoxy-4-methyl-1H-benzo[d][1,2,3]triazol-5-yl)-2,2-dimethyl-N-(pyridin-3-yl)propanamide] was 1 to 10 nM; that for `CC[C@@H]1CN(Cc2cc([C@H](CC(=O)Nc3cccnc3)c3cc(OC)c4c(nnn4CC)c3C)ccc2C)S(=O)(=O)c2cccnc2O1` [Example 65, (S)-3-(3-(((R)-4-Ethyl-1,1-dioxido-3,4-dihydro-2H-pyrido[2,3-b][1,4,5]oxathiazepin-2-yl)methyl)-4-methylphenyl)-3-(1-ethyl-7-methoxy-4-methyl-1H-benzo[d][1,2,3]triazol-5-yl)-N-(pyridin-3-yl)propanamide] was 10 to 100 nM.
Still for that read-out and setting: in the case of `CCn1nnc2c(C)c([C@H](c3ccc(C)c(CN4C[C@@H](C)Cc5cc(C(F)(F)F)ccc5S4(=O)=O)c3)C(C)(C)C(=O)Nc3cccnc3)cc(OC)c21` [Example 66, (S)-3-(1-Ethyl-7-methoxy-4-methyl-1H-benzo[d][1,2,3]triazol-5-yl)-2,2-dimethyl-3-(4-methyl-3-(((S)-4-methyl-1,1-dioxido-7-(trifluoromethyl)-4,5-dihydrobenzo[f][1,2]thiazepin-2(3H)-yl)methyl)phenyl)-N-(pyridin-3-yl)propanamide] it was 10 to 100 nM.
As to `CC[C@@H]1CN(Cc2cc([C@H](CC(=O)Nc3nn[nH]n3)c3ccc4c(nnn4CC)c3C)ccc2C)S(=O)(=O)c2cccnc2O1` [Example 67, (S)-3-(3-(((R)-4-Ethyl-1,1-dioxido-3,4-dihydro-2H-pyrido[2,3-b][1,4,5]oxathiazepin-2-yl)methyl)-4-methylphenyl)-3-(1-ethyl-4-methyl-1H-benzo[d][1,2,3]triazol-5-yl)-N-(2H-tetrazol-5-yl)propanamide], the 50% effective concentration (EC50) (Homo sapiens) is 100 to 1000 nM.
On the same count and under the same terms, the value for `CC[C@@H]1CN(Cc2cc([C@@H](c3ccc4c(nnn4CC)c3C)C(C)(C)C(N)=O)ccc2C)S(=O)(=O)c2cccnc2O1` [Example 68, (S)-3-(3-(((R)-4-Ethyl-1,1-dioxido-3,4-dihydro-2H-pyrido[2,3-b][1,4,5]oxathiazepin-2-yl)methyl)-4-methylphenyl)-3-(1-ethyl-4-methyl-1H-benzo[d][1,2,3]triazol-5-yl)-2,2-dimethylpropanamide] was 1 to 10 nM; that for `Cc1ccc(C(CC(=O)Nc2cccnc2)c2ccc(C#N)cc2C)cc1CN1CC(C)Cc2ccc(C(F)(F)F)cc2S1(=O)=O` (stereo not drawn) [Example 70, 3-(4-Cyano-2-methylphenyl)-3-(4-methyl-3-((4-methyl-1,1-dioxido-8-(trifluoromethyl)-4,5-dihydrobenzo[f][1,2]thiazepin-2(3H)-yl)methyl)phenyl)-N-(pyridin-3-yl)propanamide] was 100 to 1000 nM.
